Source: patent US20180303809A1, “TREATMENT OF BURN PAIN BY TRPV1 MODULATORS” (Purdue Pharma L.P., priority 2013, published 2018)

Experiments:
Type in all cases: in vivo, rat
[1] = test system: male Sprague-Dawley rats; test: Paw pressure assay, mechanical hyperalgesia (PWT) in thermal burn pain model; details: for % Decrease from Baseline (mean ± S.E.M.) of Paw Withdrawal Threshold / Paw Withdrawal Threshold (g) (mean ± S.E.M.): rat burn injury 55° C. 24 s
Method: (§1) Test Animals: Each experiment used male Sprague-Dawley rats weighing between 190-260 g at the time of thermal burn injury. The rats were housed two per cage, and were allowed to acclimate to their environment for at least six days before testing began. The rats had free access to food and water at all times, except during testing and prior to oral (PO) administration of a test compound, when food was removed about 16 hours before dosing. The rats were divided into treatment groups, and one of the following compounds was administered to each group at the dose and by the route of administration indicated in Tables 5.2A to 5.2C, 5.3A and 5.3B, and 5.4A and 5.4B: ketorolac (Sigma-Aldrich, St. Louis, Mo.), AMG 517 (selective TRPV1 antagonist described in Em. Doherty et al., “Novel vanilloid receptor-1 antagonists:2. Structure-activity relationships of 4-oxopyrimidines leading to the selection of a clinical candidate,” J Med Chem 50:3515-3527 (2007).) (Purdue Pharma L. P., Cranbury, N.J.), indomethacin (Alexis Biochemicals, Farmingdale, N.Y.), gabapentin (Bosche Scientific, New Brunswick, N.J.), or (S)-3-chloro-5-(1,2-dihydroxyethyl)-N-(5-(trifluoromethyl)pyridin-2-yl)-5′,6′-dihydro-[2,4′-bipyridine]-1′(2′H)-carboxamide (Compound 1). The control groups were administered the vehicle for the compound of formula (I). The volume of administration for PO treatment was 5 ml/kg, and was the same for all treatment groups. Volume of administration for intraperitoneal (i.p.) drug administration was 2 ml/kg.
(§2) To assess the actions of a compound of formula (I) for the treatment or prevention of burn pain, a model of thermal burn pain was used. A thermal burn injury was induced under isofluorane/O2 inhalation anesthesia. To assess mechanical hyperalgesia and weight bearing, a thermal injury was produced by immersing the left hind paw into water maintained at 55° C. for 24 seconds. The left hind paw of non-injured control animals was immersed in 22° C. water for 24 seconds. To assess thermal hyperalgesia, a thermal injury was produced by immersing the left hindpaw into water maintained at 50° C. for 48 seconds; the left hind-paw of non-injured control animals was immersed in 22° C. water for 48 seconds. The animals were assessed for response to noxious mechanical stimuli by determining PWT for mechanical hyperalgesia, weight bearing difference between the injured or non-injured side, or response to noxious thermal stimuli by determining PWL for thermal hyperalgesia, all as described below, prior to drug administration (baseline), then again at 1, 3 and 5 hours after induction of burn injury.
The paw pressure assay was used to assess mechanical hyperalgesia. For this assay, hind paw withdrawal thresholds (PWT) to a noxious mechanical stimulus were determined using an analgesimeter (Model 7200, commercially available from Ugo Basile of Italy) as described in C. Stein, “Unilateral Inflammation of the Hindpaw in Rats as a Model of Prolonged Noxious Stimulation: Alterations in Behavior and Nociceptive Thresholds,” Pharmacol. Biochem. and Behavior 31:451-455 (1988). The rat's paw was placed on a small platform, and weight was applied in a graded manner up to a maximum of 250 grams. The endpoint was taken as the weight at which the paw was completely withdrawn. PWT was determined once for each rat at each time point, wherein the affected (ipsilateral; same side as the injury) rear paw was tested. […] All drug treatment groups were compared to the vehicle control group (i.e. injured, administered only the vehicle).

[2] = test system: male Sprague-Dawley rats; test: Hind limb weight bearing (incapacitance meter, % WL) in thermal burn pain model; details: for % WL (mean ± S.E.M.), percentage of weight borne on the burn-injured left hind paw: rat burn injury 55° C. 24 s
Method: as §1, §2
A commercially available incapacitance meter was used to determine the weight distribution on the two hind paws of the animal (Linton Incapacitance Tester (Linton Instrumentation, Norfolk, UK)). The weight bearing difference (WBD) between the injured and non-injured hindpaw was measured. The animal was placed in the testing chamber that allows the animal to stand normally, distributing its body weight on the hind limbs for the test. Each hind paw was positioned on a separate pressure sensitive pad, which independently measures the pressure applied by each limb. The device continuously collects data after either a force threshold has been exceeded, or the investigator depresses the start pad. Rats were allowed to acclimate when placed on the apparatus, and when they were stationary, the force exerted was then continuously monitored for 3 s. The endpoint was the amount of pressure applied to each limb over time. Three readings were taken for each rat at each time point, and the average used for data analysis. WBD was expressed as “% WL”, i.e. the percentage of weight borne on the burn-injured left hind paw, using the following formula: […]
where WLP is the weight on the left hind paw and WRP is the weight on the right (untreated) hind paw. The 50% value of % WL corresponds to an equal weight distribution across both hind paws. […]

[3] = test system: male Sprague-Dawley rats; test: Plantar test, thermal hyperalgesia (PWL) in thermal burn pain model; details: for % Change from Baseline (mean ± S.E.M.) of Paw Withdrawal Latency / Paw Withdrawal Latency (sec) (mean ± S.E.M.): rat burn injury 50° C. 48 s
Method: as §1, §2
The plantar test was used to assess thermal hyperalgesia. For this test, hind paw withdrawal latencies (PWL) to a noxious thermal stimulus were determined using a plantar test apparatus (commercially available from Ugo Basile of Italy) following the technique described by K. Hargreaves et al., “A New and Sensitive Method for Measuring Thermal Nociception in Cutaneous Hyperalgesia,” Pain 32(1):77-88 (1988). The maximum exposure time was set at 32 seconds to avoid tissue damage and any directed paw withdrawal from the heat source is taken as the end point. Three latencies were determined at each time point and averaged.

[4] = 3 mg/kg PO, 1 h after administration
[5] = 3 mg/kg PO, 3 h after administration
[6] = 3 mg/kg PO, 5 h after administration
[7] = 3 mg/kg PO, baseline (prior to drug administration)
[8] = 10 mg/kg PO, 1 h after administration
[9] = 10 mg/kg PO, 3 h after administration
[10] = 10 mg/kg PO, 5 h after administration
[11] = 10 mg/kg PO, baseline (prior to drug administration)
[12] = 30 mg/kg PO, 1 h after administration
[13] = 30 mg/kg PO, 3 h after administration
[14] = 30 mg/kg PO, 5 h after administration
[15] = 30 mg/kg PO, baseline (prior to drug administration)

## O=C(Nc1ccc(C(F)(F)F)cn1)N1CC=C(c2ncc([C@H](O)CO)cc2Cl)CC1 [Compound 1, (S)-3-chloro-5-(1,2-dihydroxyethyl)-N-(5-(trifluoromethyl)pyridin-2-yl)-5′,6′-dihydro-[2,4′-bipyridine]-1′(2′H)-carboxamide]
[1]; [4]
  % Decrease from Baseline (mean ± S.E.M.) of Paw Withdrawal Threshold: 59 ± 1.8%
  Paw Withdrawal Threshold (g) (mean ± S.E.M.): 97 ± 4.5 g
[1]; [5]
  % Decrease from Baseline (mean ± S.E.M.) of Paw Withdrawal Threshold: 63.2 ± 2.1^ %
  Paw Withdrawal Threshold (g) (mean ± S.E.M.): 88 ± 5.6 g
[1]; [6]
  % Decrease from Baseline (mean ± S.E.M.) of Paw Withdrawal Threshold: 63 ± 1.4%
  Paw Withdrawal Threshold (g) (mean ± S.E.M.): 90 ± 4.0 g
[1]; [7]
  Paw Withdrawal Threshold (g) (mean ± S.E.M.): 240 ± 8.4 g
[1]; [8]
  % Decrease from Baseline (mean ± S.E.M.) of Paw Withdrawal Threshold: 55 ± 3.2%
  Paw Withdrawal Threshold (g) (mean ± S.E.M.): 108 ± 73^ g
[1]; [9]
  % Decrease from Baseline (mean ± S.E.M.) of Paw Withdrawal Threshold: 60 ± 3.2%
  Paw Withdrawal Threshold (g) (mean ± S.E.M.): 97 ± 8.5 g
[1]; [10]
  % Decrease from Baseline (mean ± S.E.M.) of Paw Withdrawal Threshold: 66 ± 2.4%
  Paw Withdrawal Threshold (g) (mean ± S.E.M.): 83 ± 5.4 g
[1]; [11]
  Paw Withdrawal Threshold (g) (mean ± S.E.M.): 243 ± 6.5 g
[1]; [12]
  % Decrease from Baseline (mean ± S.E.M.) of Paw Withdrawal Threshold: 37 ± 2.5 %
  Paw Withdrawal Threshold (g) (mean ± S.E.M.): 153 ± 4.4 g
[1]; [13]
  % Decrease from Baseline (mean ± S.E.M.) of Paw Withdrawal Threshold: 42 ± 4.5 %
  Paw Withdrawal Threshold (g) (mean ± S.E.M.): 141 ± 9.0 g
[1]; [14]
  % Decrease from Baseline (mean ± S.E.M.) of Paw Withdrawal Threshold: 61 ± 2.0^ %
  Paw Withdrawal Threshold (g) (mean ± S.E.M.): 95 ± 4.5 g
[1]; [15]
  Paw Withdrawal Threshold (g) (mean ± S.E.M.): 244 ± 6.0^ g
[1]; rat, 30 mg/kg
  Effect on mechanical hyperalgesia associated with the burn injury: significantly reduced mechanical hyperalgesia
[2]; rat burn injury
  Effect on weight bearing: did not significantly affect weight bearing
[2]; [4]
  % WL (mean ± S.E.M.), percentage of weight borne on the burn-injured left hind paw: 24.4 ± 4.44%
[2]; [5]
  % WL (mean ± S.E.M.), percentage of weight borne on the burn-injured left hind paw: 42.0 ± 4.51%
[2]; [6]
  % WL (mean ± S.E.M.), percentage of weight borne on the burn-injured left hind paw: 49.5 ± 3.60%
[2]; [7]
  % WL (mean ± S.E.M.), percentage of weight borne on the burn-injured left hind paw: 50.6 ± 0.62%
[2]; [8]
  % WL (mean ± S.E.M.), percentage of weight borne on the burn-injured left hind paw: 37.6 ± 2.54%
[2]; [9]
  % WL (mean ± S.E.M.), percentage of weight borne on the burn-injured left hind paw: 47.3 ± 1.92%
[2]; [10]
  % WL (mean ± S.E.M.), percentage of weight borne on the burn-injured left hind paw: 49.0 ± 2.15%
[2]; [11]
  % WL (mean ± S.E.M.), percentage of weight borne on the burn-injured left hind paw: 50.6 ± 0.71%
[2]; [12]
  % WL (mean ± S.E.M.), percentage of weight borne on the burn-injured left hind paw: 31.4 ± 3.92%
[2]; [13]
  % WL (mean ± S.E.M.), percentage of weight borne on the burn-injured left hind paw: 50.3 ± 2.07%
[2]; [14]
  % WL (mean ± S.E.M.), percentage of weight borne on the burn-injured left hind paw: 55.6 ± 3.03%
[2]; [15]
  % WL (mean ± S.E.M.), percentage of weight borne on the burn-injured left hind paw: 50.3 ± 0.53%
[3]; rat burn injury
  Effect on thermal hyperalgesia: did not significantly affect thermal hyperalgesia
[3]; [4]
  % Change from Baseline (mean ± S.E.M.) of Paw Withdrawal Latency: −45.8 ± 14.53%
  Paw Withdrawal Latency (sec) (mean ± S.E.M.): 8.1 ± 0.77 s
[3]; [5]
  % Change from Baseline (mean ± S.E.M.) of Paw Withdrawal Latency: −34.4 ± 7.57%
  Paw Withdrawal Latency (sec) (mean ± S.E.M.): 9.2 ± 0.99 s
[3]; [6]
  % Change from Baseline (mean ± S.E.M.) of Paw Withdrawal Latency: −35.7 ± 15.81%
  Paw Withdrawal Latency (sec) (mean ± S.E.M.): 9.9 ± 0.70 s
[3]; [7]
  Paw Withdrawal Latency (sec) (mean ± S.E.M.): 14.5 ± 1.22 s
[3]; [8]
  % Change from Baseline (mean ± S.E.M.) of Paw Withdrawal Latency: −36.0 ± 11.15%
  Paw Withdrawal Latency (sec) (mean ± S.E.M.): 8.9 ± 1.08 s
[3]; [9]
  % Change from Baseline (mean ± S.E.M.) of Paw Withdrawal Latency: −19.7 ± 10.24%
  Paw Withdrawal Latency (sec) (mean ± S.E.M.): 12.0 ± 0.66 s
[3]; [10]
  % Change from Baseline (mean ± S.E.M.) of Paw Withdrawal Latency: −22.5 ± 9.23%
  Paw Withdrawal Latency (sec) (mean ± S.E.M.): 11.3 ± 0.98 s
[3]; [11]
  Paw Withdrawal Latency (sec) (mean ± S.E.M.): 14.4 ± 1.17 s
[3]; [12]
  % Change from Baseline (mean ± S.E.M.) of Paw Withdrawal Latency: −34.3 ± 6.08%
  Paw Withdrawal Latency (sec) (mean ± S.E.M.): 7.8 ± 0.73 s
[3]; [13]
  % Change from Baseline (mean ± S.E.M.) of Paw Withdrawal Latency: −15.7 ± 10.29%
  Paw Withdrawal Latency (sec) (mean ± S.E.M.): 11.5 ± 1.04 s
[3]; [14]
  % Change from Baseline (mean ± S.E.M.) of Paw Withdrawal Latency: −16.6 ± 8.94%
  Paw Withdrawal Latency (sec) (mean ± S.E.M.): 11.2 ± 0.81 s
[3]; [15]
  Paw Withdrawal Latency (sec) (mean ± S.E.M.): 13.7 ± 0.92 s
